The supplement of paper PMC4862054
“And” between values parts separate entries of the source, which are not always exact repeats. Identical values can stand only once.

Columns and labels:
Conditions in all cases: incubation time: 72 h
MDA-MB-468 [1] = test: normalised viability (% of control), CellTiter-Blue; higher = more viable cells (about 100 = DMSO control)
Procedure, shortened: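 Each value is normalised viability at a single listed concentration of the series. Breast cancer cell lines in 384-well plates were incubated 72 h with compound and read by CellTiter-Blue fluorescence at 560/590 nm, with vehicle set to 100 and a positive kill control to 0 on every plate.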

CAL-148 [2] = test: normalised viability (% of control), CellTiter-Blue; higher = more viable cells (about 100 = DMSO control)
Protocol: (§1)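 DSRT, CellTiter-Blue viability, 72 h incubation. Signal is normalised to DMSO and benzethonium chloride controls. Value is the normalised response at dose 7.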

MDA-MB-453 [3] = test: as above
Protocol: as §1

CAL-85-1 [4] = test: as above
Protocol: as §1

CAL-51 [5] = test: as above
Protocol: as §1

HDQ-P1 [6] = test: as above
Protocol: as §1

DU-4475 [7] = test: as above
Protocol: as §1

MDA-MB-231 = test: normalised response (% of control), CellTiter-Glo; higher = more viable cells (100 = DMSO, 0 = benzethonium chloride kill control)
Procedure, shortened: (§2)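 Normalised signals at single concentrations make up the values. They come from breast cancer cell lines seeded (20 µl suspension) into 384-well plates with compound at 5 concentrations in 10-fold steps over a compound-specific 10,000-fold range, incubated 72 h, and read for CellTox Green fluorescence then CellTiter-Glo luminescence. Each plate was normalised to 0.1 % DMSO (100) and a positive kill control (0).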

HCC1599 = test: as above
Procedure, shortened: as §2

MFM-223 = test: as above
Procedure, shortened: as §2

CAL-148 [8] = test: as above
Procedure, shortened: as §2

MDA-MB-453 [9] = test: as above
Procedure, shortened: as §2

HCC1143 = test: as above
Procedure, shortened: as §2

MDA-MB-436 = test: as above
Procedure, shortened: as §2

BT-474 = test: as above
Procedure, shortened: as §2

CAL-85-1 [10] = test: as above
Procedure, shortened: as §2

MCF-10A = test: as above
Procedure, shortened: as §2

CAL-120 = test: as above
Procedure, shortened: as §2

HCC1937 = test: as above
Procedure, shortened: as §2

Hs578T = test: as above
Procedure, shortened: as §2

CAL-51 [11] = test: as above
Procedure, shortened: as §2

MDA-MB-468 [12] = test: as above
Procedure, shortened: as §2

SK-BR-3 = test: as above
Procedure, shortened: as §2

HDQ-P1 [13] = test: as above
Procedure, shortened: as §2

DU-4475 [14] = test: as above
Procedure, shortened: as §2

BT-549 = test: as above
Procedure, shortened: as §2

| SMILES | normalised viability (MDA-MB-468 [1]; 10 nM) | normalised viability (MDA-MB-468 [1]; 1000 nM) | normalised viability (MDA-MB-468 [1]; 10000 nM) | normalised viability (CAL-148 [2]) | normalised viability (MDA-MB-453 [3]) | normalised viability (CAL-85-1 [4]) | normalised viability (CAL-51 [5]) | normalised viability (HDQ-P1 [6]) | normalised viability (DU-4475 [7]) | normalised response (MDA-MB-231) | normalised response (HCC1599) | normalised response (MFM-223) | normalised response (CAL-148 [8]) | normalised response (MDA-MB-453 [9]) | normalised response (HCC1143) | normalised response (MDA-MB-436) | normalised response (BT-474) | normalised response (CAL-85-1 [10]) | normalised response (MCF-10A) | normalised response (CAL-120) | normalised response (HCC1937) | normalised response (Hs578T) | normalised response (CAL-51 [11]) | normalised response (MDA-MB-468 [12]) | normalised response (SK-BR-3) | normalised response (HDQ-P1 [13]) | normalised response (DU-4475 [14]) | normalised response (BT-549) | normalised viability (MDA-MB-468 [1]; 0.99 nM) | normalised viability (MDA-MB-468 [1]; 99 nM) | normalised viability (MDA-MB-468 [1]; 990 nM) | normalised viability (MDA-MB-468 [1]; 40 nM) | normalised viability (MDA-MB-468 [1]; 4000 nM) | normalised viability (MDA-MB-468 [1]; 40000 nM) |
| --- | --- | --- | --- | --- | --- | --- | --- | --- | --- | --- | --- | --- | --- | --- | --- | --- | --- | --- | --- | --- | --- | --- | --- | --- | --- | --- | --- | --- | --- | --- | --- | --- | --- | --- |
| Oc1ncnc2[nH]ncc12 [Allopurinol] | 102% | 99.7% | 103% |  |  |  |  |  |  |  |  |  |  |  |  |  |  |  |  |  |  |  |  |  |  |  |  |  |  |  |  |  |  |  |
| Cn1cnc2c(F)c(Nc3ccc(Br)cc3Cl)c(C(=O)NOCCO)cc21 [Selumetinib] (1000 nM) |  |  |  | 92.8% | 104% | 64.8% | 91.3% | 75.2% | 1.82% | 72.5% | 93.9% | 92.2% | 79.4% | 106% | 85.1% | 90.7% | 67.8% | 107% | 37.6% | 85.1% | 84.7% | 93.4% | 110% | 87.8% | 86.8% | 63.8% | 4.56% | 96.5% |  |  |  |  |  |  |
| O=NN(CCCl)C(=O)NCCCl [Carmustine] | 107% | 102% | 103% |  |  |  |  |  |  |  |  |  |  |  |  |  |  |  |  |  |  |  |  |  |  |  |  |  |  |  |  |  |  |  |
| CC1=C2C[C@H]3[C@@H](CC=C4C[C@@H](O)CC[C@@]43C)[C@@H]2CC[C@]12O[C@@H]1C[C@H](C)CN[C@H]1[C@H]2C [Cyclopamine] (1000 nM) |  |  |  | 119% | 86.8% | 92.2% | 110% | 127% | 121% | 112% | 108% | 110% | 105% | 108% | 105% | 101% | 95.7% | 106% | 106% | 106% | 98.5% | 111% | 68% | 105% | 111% | 103% | 99.5% | 92.4% |  |  |  |  |  |  |
| CC1=C2C[C@H]3[C@@H](CC=C4C[C@@H](O)CC[C@@]43C)[C@@H]2CC[C@]12O[C@@H]1C[C@H](C)CN[C@H]1[C@H]2C [Cyclopamine] | 100% | 102% | 90.9% |  |  |  |  |  |  |  |  |  |  |  |  |  |  |  |  |  |  |  |  |  |  |  |  |  |  |  |  |  |  |  |
| C[C@]1(O)C[C@@H](c2nc(-c3ccc4ccc(-c5ccccc5)nc4c3)c3c(N)nccn32)C1 [OSI-906] | 104% | 86.5% | 84.6% |  |  |  |  |  |  |  |  |  |  |  |  |  |  |  |  |  |  |  |  |  |  |  |  |  |  |  |  |  |  |  |
| C[C@]12CC[C@@H]3c4ccc(OC(=O)N(CCCl)CCCl)cc4CC[C@H]3[C@@H]1CC[C@@H]2O [Estramustine] |  |  |  |  |  |  |  |  |  |  |  |  |  |  |  |  |  |  |  |  |  |  |  |  |  |  |  |  | 102% | 103% | 117% |  |  |  |
| CC(=O)O[C@@]12CO[C@@H]1C[C@H](O)[C@@]1(C)C(=O)[C@H](O)C3=C(C)[C@@H](OC(=O)[C@H](O)[C@@H](NC(=O)OC(C)(C)C)c4ccccc4)C[C@@](O)([C@@H](OC(=O)c4ccccc4)[C@H]21)C3(C)C [Docetaxel] (100 nM) |  |  |  | 22.7% and 19.8% | 26.2% and 23.4% | 32.9% and 29.5% | 18.2% and 13.8% | 34.2% and 38% | 13.8% and 9.08% | 28.7% | 28.5% | 40% | 36.6% | 45.3% | 31.5% | 31.6% | 38.3% | 28.1% | 41.5% | 56.3% | 68.3% | 13% | 27.4% | 36.6% | 10.1% | 67.1% | 34.7% | 16% |  |  |  |  |  |  |
| Oc1ncnc2[nH]ncc12 [Allopurinol] (1000 nM) |  |  |  | 124% | 100% | 96.3% | 91.5% | 88% | 109% | 103% | 119% | 108% | 99.2% | 107% | 107% | 100% | 101% | 96.2% | 106% | 98.8% | 94.3% | 109% | 123% | 106% | 112% | 98.1% | 105% | 99.7% |  |  |  |  |  |  |
| CC1(C)CNc2cc(NC(=O)c3cccnc3NCc3ccncc3)ccc21 [Motesanib] (1000 nM) |  |  |  | 90.3% | 75.4% | 79.8% | 105% | 78.1% | 99.5% | 89.1% | 98.1% | 91% | 86.4% | 101% | 93.6% | 103% | 91.9% | 93.5% | 96.9% | 92.3% | 101% | 96.4% | 85.7% | 91.5% | 80.6% | 96.6% | 98.4% | 97.6% |  |  |  |  |  |  |
| Cc1sc2c(c1C)C(c1ccc(Cl)cc1)=N[C@@H](CC(=O)OC(C)(C)C)c1nnc(C)n1-2 [(+)JQ1] (1000 nM) |  |  |  | 56.5% | 21.9% | 56.7% | 84.1% | 106% | 12.4% | 77.2% | 80% | 58.2% | 71.5% | 46.1% | 72.8% | 83.2% | 69.9% | 38.7% | 57.1% | 73.4% | 80.8% | 48.8% | 103% | 55.1% | 66.9% | 68.5% | 56.6% | 43.5% |  |  |  |  |  |  |
| CC(C)(C)c1cnc(CSc2cnc(NC(=O)C3CCNCC3)s2)o1 [SNS-032] (1000 nM) |  |  |  | 18.8% | 11.2% | 2.84% | 31.5% | 12.6% | 2.63% | 7.43% | 7.69% | 18.9% | 53.8% | 25.5% | 12.1% | 17.6% | 20.2% | 6.5% | 14.3% | 36.9% | 26.1% | 13% | 9.15% | 5.83% | 3.47% | 20.8% | 6.57% | 8.17% |  |  |  |  |  |  |
| O=NN(CCCl)C(=O)NCCCl [Carmustine] (1000 nM) |  |  |  | 105% | 105% | 88.4% | 96.9% | 105% | 102% | 97.8% | 101% | 97.6% | 91.3% | 102% | 100% | 101% | 95.5% | 97.5% | 98.3% | 96.6% | 99.8% | 102% | 121% | 96.8% | 96.2% | 101% | 98.9% | 101% |  |  |  |  |  |  |
| CC(=O)c1c(C)c2cnc(Nc3ccc(N4CCNCC4)cn3)nc2n(C2CCCC2)c1=O | 115% | 99.8% | 85.3% |  |  |  |  |  |  |  |  |  |  |  |  |  |  |  |  |  |  |  |  |  |  |  |  |  |  |  |  |  |  |  |
| CC[C@@H]1C(=O)OC[C@@H]1Cc1cncn1C [Pilocarpine] |  |  |  |  |  |  |  |  |  |  |  |  |  |  |  |  |  |  |  |  |  |  |  |  |  |  |  |  |  |  |  | 95.2% | 99% | 109% |
| Cn1cc(C2=Nc3cc(NC(=O)C(N)C4CCCCC4)cc4c3C2=CNNC4=O)cn1 (centres undefined) (1000 nM) |  |  |  | 62.4% | 36.9% | 64% | 87.8% | 67.1% | 72.1% | 63.7% | 11.9% | 46.4% | 83.8% | 35.9% | 64.5% | 53.3% | 68.5% | 36.8% | 74.5% | 69.7% | 87% | 41.3% | 81.6% | 30.7% | 17.8% | 85.2% | 89% | 25.7% |  |  |  |  |  |  |
| Nc1nc2[nH]cnc2c(=S)[nH]1 [Thioguanine] (1000 nM) |  |  |  | 93.4% | 95.2% | 79.2% | 108% | 85.2% | 117% | 50.7% | 82% | 93.7% | 93.4% | 94.3% | 99.1% | 83.8% | 44.8% | 70.3% | 99.8% | 79% | 59.9% | 78.3% | 91.9% | 95.7% | 95.4% | 66.1% | 88.5% | 94.2% |  |  |  |  |  |  |
| COc1cc(F)c(F)c(Nc2ccc(I)cc2F)c1NS(=O)(=O)C1(C[C@H](O)CO)CC1 [RDEA119] | 94.2% | 78.3% | 51% |  |  |  |  |  |  |  |  |  |  |  |  |  |  |  |  |  |  |  |  |  |  |  |  |  |  |  |  |  |  |  |
